Assay results published in patent publication US6060608A, “Analogs of CC-1065 and the duocarmycins” (The Scripps Research Institute, priority 1999, dated 2000).
Where two headings read alike, the source gives them in different places.

Assays:
[1] = Solvolysis in THF-CH3OH with CF3SO3H; assay type: physicochemical; details: 20 equiv CH3OH, 0.1 equiv CF3SO3H
Description: Solvolysis of N-BOC-CCBI in THF-CH3 OH. The solvolysis of N-BOC-CCBI (25) was carried out in THF with 20-500 equiv of CH3 OH in the presence of 0.1-0.25 equiv of CF3 SO3 H. The following is the procedure for the solvolysis of 25 in THF with 20 equiv of CH3 OH in the presence of CF3 SO3 H (0.1 equiv). A stock solution was prepared by addition of CF3 SO3 H (5.6 μL) and anhydrous CH3 OH (502 μL) to anhydrous THF (99.49 mL). A sample of 25 (100 μg) in a UV cell was dissolved in THF (1950 μL) and the THF stock solution (50 μL) which contained CF3 SO3 H (0.1 equiv) and CH3 OH (20 equiv) was added. The solvolysis solution was sealed and UV spectrum was measured with an automated cycle program at regular intervals (10 min/cycle). The decrease in the long wavelength absorption at 313 nm was monitored and the solvolysis was complete after 80 h.

[2] = Aqueous solvolysis reactivity followed by UV; assay type: physicochemical; details: for half-life: read-out: solvolysis half-life t1/2 (converted)
Description: The reactivity of 217-219 was assessed by following the solvolysis spectrophotometrically by UV at both pH 3 (50% CH3 OH-buffer, buffer=4:1:20 (v/v/v) 0.1 M citric acid, 0.2 M Na2 HPO4, H2 O) and pH 7 (1:1 H2 O--CH3 OH) measuring both the disappearance of the long-wavelength absorption band of the F2 CBI chromophore and the appearance of a short-wavelength absorption band attributable to the ring open products (FIG. 31).
Aqueous Solvolysis Reactivity. pH 3: N-BOC-CCBI (25, 100 μg) was dissolved in CH3 OH (1.5 mL) and mixed with pH 3 aqueous buffer (1.5 mL). The buffer contained 4:1:20 (v:v:v) 0.1 M citric acid, 0.2 M Na2 HPO4 and H2 O, respectively. The solvolysis solution was sealed and kept at 25° C. protected from light. The UV spectrum was measured at regular intervals every 2 h during the first day, every 12 h for another week, and every 24 h for an additional week. The decrease in the long-wavelength absorption at 322 nm and the increase in the short-wavelength absorption at 268 nm were monitored, FIG. 1.
pH 2: Samples of 25 (100 μg) and 26 (50 μg) were dissolved in CH3 OH (1.5 mL) and the solutions were mixed with aqueous buffer (pH 2.05, 1.5 mL). The buffer contained 4:1:20 (v:v:v) 1.0 M citric acid, 0.2 M Na2 HPO4, and H2 O, respectively. Immediately after mixing, the UV spectra of the solutions were measured against a reference solution containing CH3 OH (1.5 mL) and the aqueous buffer (1.5 mL) and these readings were used for the initial absorbance values. The solutions were stoppered, protected from the light, and allowed to stand at 25° C. UV spectra were recorded at regular intervals until constant values were obtained for the long and short wavelength absorbances. The solvolysis rate constants were determined from the slope of the lines obtained from linear least squares treatment of plots of ln[(Af -Ai)/(Af -A)] versus time using the short wavelength measurements for 25 and long wavelength measurements for 26).

[3] = pH 2 (buffer pH 2.05), CH3OH-buffer 1:1, 25° C.

In the case of `CC(C)(C)OC(=O)N1CC2CC23C1=CC(=O)c1ccc(C#N)cc13` (stereo not shown) [compound 25, N-(tert-Butyloxycarbonyl)-7-cyano-1,2,9,9a-tetrahydrocyclopropa[c]benz[e]indol-4-one], the “solvolysis half-life t1/2” value [1] was 9.2 h, the solvolysis rate k [1] was 2e-05 s⁻¹ and the “time to complete solvolysis” value [1] was 80 h. The “first order solvolysis rate constant” value [2, 3] was 7.94e-06 s⁻¹, the half-life [2, 3] was 24.2 h and the “solvolysis rate constant k” value ([2]; pH 3, 50% CH3OH-buffer) was 9.9e-07 s⁻¹. It also gave a half-life ([2]; pH 3, 50% CH3OH-buffer) of 213 h.
